Results as given in PMC3236199, “Development of Derivatives of 3, 3′-Diindolylmethane as Potent Leishmania donovani Bi-Subunit Topoisomerase IB Poisons” (PLoS ONE, 2011).

How the values were obtained:
[1] = test system: L. donovani AG83 amastigotes in Balb/c mouse peritoneal macrophages; assay: In vitro macrophage infection, clearance of intracellular amastigotes; assay type: cell-based, Leishmania donovani; settings: 50 µM, 24 h, infected mouse macrophages
Source text: Balb/c mice, originally obtained from Jackson Laboratories, Bar Harbor, ME and reared in the institute animal facilities, were used for experimental purposes with prior approval of the animal ethics committee. Macrophages were isolated from mice 36 to 48 hr post injection (intraperitoneal) with 2% (w/v) hydrolyzed starch by peritoneal lavage with ice-cold phosphate-buffered saline. Cells were washed and cultured for 18–24 hr (for adherence) in RPMI 1640 (supplemented with 100 IU/ml of penicillin and […] of streptomycin) containing 10% (v/v) heat-inactivated FBS (RPMI-FBS) at 37°C with 5% CO2 in air on sterile cover glass (22 mm×22 mm) placed in disposable plates 35 mm in diameter (Tarsons India Ltd.). The culture medium was washed off and fresh RPMI-FBS was added. About 5×10^5 macrophages were maintained for proper distribution on cover glass. During the course of this study, macrophages were infected with promastigotes at a macrophage-to-parasite ratio of 1∶10 in RPMI-FBS for 6 hours to ensure entry of parasite. Following incubation, unphagocytosed parasites were removed by washing with medium, and cells were resuspended in RPMI-FBS at 37°C, 5% CO2 and then incubated for 6 hrs. Cultures were transferred to a CO2 incubator at 37°C and incubated for another 10–12 hr. Respective inhibitors were added at different concentrations (ranging from 5 µM to 50 µM) to infected macrophages and left for another 24 hr period. Cells were then fixed in methanol and stained with 2% Giemsa. Percentages of infected cells and total number of intracellular parasites were determined by manual counting in at least 200 cells using light microscope.
Primary macrophage cells were obtained from Balb/c mice peritoneal extrudates. After adherence and inactivation, these macrophage cells were infected with early passaged L. donovani AG83 promastigotes were infected to macrophages. After subsequent washing they were incubated with different concentrations (5, 10, 20 and 50 µM) of each of these inhibitors for 24 h (Fig. 3A). Macrophages were fixed and intracellular amastigotes were counted by Giemsa staining. […]
Figure 3 Effectiveness of clearance of internalized L. donovani (AG83) from in vitro infected mouse M [drawing 3] . […] Cells were fixed, stained with Giemsa and counted under bright field microscope. […] Experiments were carried out for three times and representative results are the mean ± S.D. (B) Growth of DIM resistant L. donovani axenic amastigotes were monitored in presence of increasing concentrations (2, 5, 10, 20 and 50 µM) of DIM, DPDIM, DMDIM and DMODIM for 12 h. […] Growth of the parasites treated with the compounds was expressed as percentage of the viable promastigotes compared with that of control. […]

[2] = test system: wild type L. donovani AG83 promastigotes; assay: DNA fragmentation assay (cell death detection ELISA), wild type; assay type: cell-based, Leishmania donovani; settings: 20 µM
Experimental: Leishmanial cells were cultured in 24-well plates and treated with 20 µM of DIM, DPDIM, DMDIM and DMODIM for different times. Samples were collected at requisite time points and subjected to measurement of DNA fragmentations. Cytoplasmic histone-associated DNA fragments (mononucleosome and oligonucleosomes) formed during apoptosis were detected using a cell death detection ELISA kit (Roche Biochemicals) by spectrophotometric measurement of microtiter plates in a Thermo MULTISKAN EX plate reader at 405 nm. The relative percentages (with respect to samples treated with micrococcal nuclease and normalized to percentage values) were plotted as units of time or drug concentrations as described previously.
The internucleosomal DNA digestion by an endogenous nuclease (genomic DNA fragmentation) is considered as a hallmark of apoptotic cell death. […] To investigate whether these derivatives also do the same, we performed the DNA fragmentation assay with wild type L. donovani AG83 promastigotes and DIM resistant parasites (Fig. 4) by ELISA as described in Materials and Methods. […] DNA fragmentation increased to 85%, 89%, 81% and 71% at 8 h of treatment in wild type parasites. The DIM resistant parasites (LdDR50) have much less effect in DNA fragmentation (13% at 6 h and 17% at 8 h) when treated with 20 µM DIM. On the other hand the extents of DNA fragmentations were 63%, 51% and 40% at 6 h treatment with DPDIM, DMDIM and DMODIM respectively. The extent of fragmentation increased to 82%, 74% and 65% after treatment for 8 h with the drugs as mentioned above.
Figure 4 DIM derivatives-induced fragmentation of genomic DNA in wild type and DIM resistant parasites. Relative percentage of DNA fragmentation measured by cell death detection ELISA kit in L. donovani promastigotes treated with DIM, DPDIM, DMDIM and DMODIM. The experiments were performed three times and representative data from one of these experiments as means ± SD.

c1ccc2c(Cc3c[nH]c4ccccc34)c[nH]c2c1 [DIM, 3, 3′-diindolyl methane, reference compound]
efficiency of amastigote killing (clearance from macrophages) [1]: 91%
fragmentation of DNA ([2]; 6 h): 73%
fragmentation of DNA ([2]; 8 h): 85%

Cc1[nH]c2ccccc2c1Cc1c(C)[nH]c2ccccc12 [DMDIM, 2,2′-dimethyl 3,3′-diindolyl methane]
efficiency of amastigote killing (clearance from macrophages) [1]: 92%
fragmentation of DNA ([2]; 6 h): 60%
fragmentation of DNA ([2]; 8 h): 81%

COc1ccc2[nH]cc(Cc3c[nH]c4ccc(OC)cc34)c2c1 [DMODIM, 5,5′-dimethoxy 3,3′-diindolyl methane]
efficiency of amastigote killing (clearance from macrophages) [1]: about 85%
fragmentation of DNA ([2]; 6 h): 49%
fragmentation of DNA ([2]; 8 h): 71%

c1ccc(-c2[nH]c3ccccc3c2Cc2c(-c3ccccc3)[nH]c3ccccc23)cc1 [DPDIM, 2,2′-diphenyl 3,3′-diindolyl methane]
efficiency of amastigote killing (clearance from macrophages) [1]: 96%
fragmentation of DNA ([2]; 6 h): 79%
fragmentation of DNA ([2]; 8 h): 89%
